Measurements taken from PubChem BioAssay (NCI).
Several values for one entry are separate records, joined by “and”; a condition that tells them apart may be missing. Equal values may be shown once.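 Each compound was tested at five concentrations against cells in 96-well plates for 48 hours. The concentration for 50% growth inhibition is given as GI50. TGI is the concentration that stops growth completely.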 *1 amine or outer side, *2 acyl side, *3 side chain or, on linkers, in order; H or OH if unused. Where a SMILES comes first, the peptide text is derived from it. [ ]: non-standard residue; d: D form. X56 = CC[C@H](C)[C@H](OC(=O)[C@@H](C)[C@@H](CC)N[*:1])C(=O)[*:2]; X32 = C[C@H](N[*:1])C(=O)C(C)(C)C(=O)[*:2]; NMeY = CN[C@@H](Cc1ccc(O)cc1)C(=O)O; NMeL = CN[C@@H](CC(C)C)C(=O)O; NMeV = CN[C@H](C(=O)O)C(C)C

Assays:
Experiment in all cases: NCI anticancer screen, dose series, 48 h
[1] = system: A549 NSCLC
[2] = system: HOP-62 NSCLC
[3] = system: K-562 leukemia
[4] = system: KM20L2 colon
[5] = system: M19-MEL melanoma
[6] = system: SF-295 CNS
[7] = system: SNB-75 CNS
[8] = system: UACC-62 melanoma
[9] = system: MDA-MB-435
[10] = system: PC-3 prostate

Structure (SMILES) | TGI [1] | TGI [2] | TGI [3] | TGI [4] | TGI [5] | TGI [6] | TGI [7] | TGI [8] | GI50 [3] | TGI [9] | TGI [10] | GI50 [6] | GI50 [7] | GI50 [8] | GI50 [1] | GI50 [2] | GI50 [4] | GI50 [5]
COc1ccc(-c2c(N)[n+]([O-])c3ccccc3[n+]2[O-])cc1OC | > 100 µM | > 100 µM | > 100 µM | > 100 µM | > 100 µM | > 100 µM | > 100 µM |  |  |  |  |  |  |  |  |  |  | 
Cc1c2c(cc3c(=O)ccn(CCN(C)C)c13)c(=O)ccn2CCN(C)C | 48.9 µM | 29.1 µM | 44.9 µM | 20.8 µM | 30.2 µM | 25.4 µM | 25.6 µM | 31.6 µM |  |  |  |  |  |  |  |  |  | 
S=c1nc(N2CCCCC2)ss1 | 83.7 µM | 64.6 µM | 52.1 µM | > 100 µM | 52.3 µM | 81.4 µM | 77 µM | 35.4 µM |  |  |  |  |  |  |  |  |  | 
CC(=O)/C=C/c1ccc(C)cc1 | > 100 µM | > 100 µM | > 100 µM | > 100 µM | > 100 µM | > 100 µM | > 100 µM | > 100 µM |  |  |  |  |  |  |  |  |  | 
NNC(=O)/C(NC(=O)c1ccccc1)=C(\N)c1ccc(Cl)cc1 | > 100 µM | > 100 µM | > 100 µM | > 100 µM | > 100 µM | > 100 µM | > 100 µM | > 100 µM |  |  |  |  |  |  |  |  |  | 
CC[C@H](C)[C@@H]1OC(=O)[C@@H](C)[C@@H](CC)NC(=O)[C@H](C)NC(=O)C(C)(C)C(=O)[C@H](C)NC(=O)[C@H](Cc2ccc(OC)cc2)N(C)C(=O)[C@H](C(C)C)N(C)C(=O)CNC(=O)[C@H](CC(C)C)N(C)C(=O)CNC1=O (cyclo(A[X56]G[NMeL]G[NMeV][NMeY](Me)[X32])) | 3.19 µM and 6.15 µM | 0.175 µM | 0.634 µM | 16.7 µM | 22.3 µM | 0.657 µM and 0.0793 µM |  | 5.28 µM and 5.31 µM | < 0.0322 µM | 2.47 µM | 6.85 µM | 0.0102 µM | < 0.0154 µM | 0.111 µM |  |  |  | 
C=CCn1cc(C(=O)NC(=O)NCCCCCOC(=O)CCCCCCCCCCC(=O)OCCCCCNC(=O)NC(=O)c2cn(CC=C)c(=O)n(C)c2=O)c(=O)n(C)c1=O | > 100 µM | > 100 µM | > 100 µM | > 100 µM | > 100 µM |  | > 100 µM | > 100 µM |  |  |  |  |  |  |  |  |  | 
COC(=O)C1C(OCc2ccccc2)C2CCC1(OC)C=C2C (stereo not given) | > 100 µM | > 100 µM | > 100 µM | > 100 µM | > 100 µM | > 100 µM | > 100 µM | > 100 µM |  |  |  |  |  |  |  |  |  | 
COc1cc(Nc2nc3ccc(C(F)(F)F)cc3nc2-c2ccccc2)cc(OC)c1OC | > 100 µM | > 100 µM | > 100 µM | 26 µM |  | 11.6 µM | > 100 µM | > 100 µM |  |  |  |  |  |  |  |  |  | 
Cc1ccc2c(c1)CNc1ccc(C)cc1CN2 | > 100 µM | > 100 µM | > 100 µM |  | > 100 µM | > 100 µM | > 100 µM | > 100 µM |  |  |  |  |  |  |  |  |  | 
O=C(/C=C/c1ccccc1Cl)c1ccc(Cl)cc1Cl | 39.8 µM | 42.1 µM | 11.7 µM | 28.3 µM | 31.9 µM | 36.3 µM | 37.4 µM | 27.6 µM |  |  |  |  |  |  |  |  |  | 
C1=Nc2ccccc2C=Nc2ccccc2C=Nc2ccccc2C=Nc2ccccc21.[Cl-].[Pt+2] | > 100 µM | 45.6 µM | 93.7 µM | 58 µM | > 100 µM |  |  | 87.8 µM | 3.61 µM |  |  |  |  | 21.1 µM | 28.7 µM | 15.1 µM | 21 µM | 22.2 µM
N#CC1CC2(C(=O)C1=O)c1ccccc1-c1ccccc12 (stereo not given) | > 100 µM | > 100 µM | > 100 µM | > 100 µM | > 100 µM | > 100 µM | > 100 µM | > 100 µM |  |  |  |  |  |  |  |  |  | 
c1ccc(COC2(OCc3ccccc3)CC3OC2C2NN=NC32)cc1 (stereo not given) | > 100 µM | > 100 µM | 38.6 µM | > 100 µM | 32.2 µM | 62.4 µM | 42.3 µM | 46.6 µM |  |  |  |  |  |  |  |  |  | 
O=c1c2ccccc2nc(-c2cccc(Cl)c2)n1NCC1(O)OCC(O)C(O)C1O (stereo not given) | > 100 µM |  | > 100 µM | > 100 µM | > 100 µM | > 100 µM |  | > 100 µM |  |  |  |  |  |  |  |  |  | 
COc1cc2c(c(OC)c1OC)-c1ccc(OC)c(=O)cc1[C@@H](N(C)C=O)CC2 | > 100 µM | > 100 µM | > 100 µM |  | > 100 µM | 0.0365 µM | 0.615 µM | > 100 µM |  |  |  |  |  |  |  |  |  | 
C/C(=N\N=C(N)N)C(CN(C)C)C(c1ccccc1)c1c(O)c2ccccc2oc1=O (stereo not given) | > 100 µM | > 100 µM | > 100 µM | > 100 µM | > 100 µM | > 100 µM | > 100 µM | > 100 µM |  | > 100 µM | > 100 µM |  |  |  |  |  |  | 
